Measurements as given in patent US4401660A, “Ester derivatives of 5-O-mycaminosyl tylonolide and method of using same” (Eli Lilly and Company, priority 1981, dated 1983).

Tests used:
[1] = tested on: Pasteurella multocida 60A; assay: MIC, broth-dilution microtiter test (Table III); assay type: cell-based; set-up: unit not given here; details: avian isolate
Procedure: (§1) The MIC's in Table II were determined by standard agar-dilution assays. The MIC's in Table III were obtained using a conventional broth-dilution microtiter test.

Mycoplasma hyorhinis = assay: MIC, broth-dilution microtiter test (Table III); assay type: cell-based; set-up: unit not given here
Procedure: as §1

[2] = tested on: Pasteurella haemolytica 22C; assay: MIC, broth-dilution microtiter test (Table III); assay type: cell-based; set-up: unit not given here
Procedure: as §1

Mycoplasma gallisepticum = assay: MIC, broth-dilution microtiter test (Table III); assay type: cell-based; set-up: unit not given here
Procedure: as §1

Staphylococcus aureus = assay: MIC, broth-dilution microtiter test (Table III); assay type: cell-based; set-up: unit not given here
Procedure: as §1

[3] = tested on: Pasteurella multocida 22A; assay: MIC, broth-dilution microtiter test (Table III); assay type: cell-based; set-up: unit not given here
Procedure: as §1

Mycoplasma synoviae = assay: MIC, broth-dilution microtiter test (Table III); assay type: cell-based; set-up: unit not given here
Procedure: as §1

[4] = tested on: Pasteurella multocida 68C; assay: MIC, broth-dilution microtiter test (Table III); assay type: cell-based; set-up: unit not given here
Procedure: as §1

[5] = tested on: Pasteurella haemolytica 23C; assay: MIC, broth-dilution microtiter test (Table III); assay type: cell-based; set-up: unit not given here
Procedure: as §1

[6] = tested on: Pasteurella multocida 17E; assay: MIC, broth-dilution microtiter test (Table III); assay type: cell-based; set-up: unit not given here; details: bovine isolate
Procedure: as §1

[7] = tested on: Pasteurella multocida 40G; assay: MIC, broth-dilution microtiter test (Table III); assay type: cell-based; set-up: unit not given here
Procedure: as §1

Streptococcus sp. 80 = assay: MIC, broth-dilution microtiter test (Table III); assay type: cell-based; set-up: unit not given here
Procedure: as §1

[8] = tested on: Pasteurella haemolytica 41D; assay: MIC, broth-dilution microtiter test (Table III); assay type: cell-based; set-up: unit not given here
Procedure: as §1

Pasteurella multocida = assay: Treatment of Pasteurella infections in chicks (Table V); assay type: in vivo, one-day-old chicks; details: Pasteurella multocida, sc, 4 h; 30 mg/kg by subcutaneous injection one and four hours post challenge; read-out: Deaths in Treated Chicks/Number Treated (converted)
How it was run: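 Dosing was 30 mg/kg by subcutaneous injection, one and four hours after challenge. Day-old chicks received 0.1 ml of a 10^-3 dilution of a 20-hour tryptose broth culture of avian P. multocida subcutaneously. Nonmedicated infected chicks served as controls, ten per group.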

[9] = tested on: Staphylococcus aureus X400; assay: MIC, standard agar-dilution assay (Table II); assay type: cell-based; set-up: unit not given here; details: Staphylococcus aureus X400, methicillin-resistant strain
Procedure: as §1

[10] = tested on: Staphylococcus aureus S13E; assay: MIC, standard agar-dilution assay (Table II); assay type: cell-based; set-up: unit not given here
Procedure: as §1

[11] = tested on: Haemophilus influenzae Holt; assay: MIC, standard agar-dilution assay (Table II); assay type: cell-based; set-up: unit not given here; details: ampicillin-sensitive strain
Procedure: as §1

[12] = tested on: Staphylococcus epidermidis EPI1; assay: MIC, standard agar-dilution assay (Table II); assay type: cell-based; set-up: unit not given here
Procedure: as §1

[13] = tested on: Streptococcus pyogenes C203; assay: MIC, standard agar-dilution assay (Table II); assay type: cell-based; set-up: unit not given here
Procedure: as §1

[14] = tested on: Streptococcus Group D X66; assay: MIC, standard agar-dilution assay (Table II); assay type: cell-based; set-up: unit not given here
Procedure: as §1

[15] = tested on: Staphylococcus aureus V41; assay: MIC, standard agar-dilution assay (Table II); assay type: cell-based; set-up: unit not given here; details: Staphylococcus aureus V41, penicillin-resistant strain
Procedure: as §1

[16] = tested on: Streptococcus pneumoniae Park I; assay: MIC, standard agar-dilution assay (Table II); assay type: cell-based; set-up: unit not given here
Procedure: as §1

[17] = tested on: Staphylococcus epidermidis EPI2; assay: MIC, standard agar-dilution assay (Table II); assay type: cell-based; set-up: unit not given here
Procedure: as §1

[18] = tested on: Haemophilus influenzae R252; assay: MIC, standard agar-dilution assay (Table II); assay type: cell-based; set-up: unit not given here; details: Haemophilus influenzae R252, ampicillin-resistant strain
Procedure: as §1

[19] = tested on: Staphylococcus aureus X1.1; assay: MIC, standard agar-dilution assay (Table II); assay type: cell-based; set-up: unit not given here
Procedure: as §1

[20] = tested on: Streptococcus Group D 9960; assay: MIC, standard agar-dilution assay (Table II); assay type: cell-based; set-up: unit not given here
Procedure: as §1

Row | Structure (SMILES) | minimal inhibitory concentration (MIC) [1] | minimal inhibitory concentration (MIC) (Mycoplasma hyorhinis) | minimal inhibitory concentration (MIC) [2] | minimal inhibitory concentration (MIC) (Mycoplasma gallisepticum) | minimal inhibitory concentration (MIC) (Staphylococcus aureus) | minimal inhibitory concentration (MIC) [3] | minimal inhibitory concentration (MIC) (Mycoplasma synoviae) | minimal inhibitory concentration (MIC) [4] | minimal inhibitory concentration (MIC) [5] | minimal inhibitory concentration (MIC) [6] | minimal inhibitory concentration (MIC) [7] | minimal inhibitory concentration (MIC) (Streptococcus sp. 80) | minimal inhibitory concentration (MIC) [8] | mortality at 30 mg/kg (Pasteurella multocida) [%] | minimal inhibitory concentration (MIC) [9] | minimal inhibitory concentration (MIC) [10] | minimal inhibitory concentration (MIC) [11] | minimal inhibitory concentration (MIC) [12] | minimal inhibitory concentration (MIC) [13] | minimal inhibitory concentration (MIC) [14] | also measured
1 | CCC(=O)OCC1C=C(C)C=CC(=O)C(C)CC(CC=O)C(OC2OC(C)C(OC(=O)CC)C(N(C)C)C2OC(=O)CC)C(C)C(O)CC(=O)OC1CC (stereo not shown) [Compound 8, 2',4',23-Tri-O-propionyl-OMT] | 1.56 | 0.78 | 3.12 | 0.048 | 0.39 | 3.12 | 0.048 | 1.56 | 6.25 | 1.56 | 1.56 | 0.195 | 3.12 | 60 | 0.5 | 0.5 | 2 | 0.25 | 0.25 | 0.5 | minimal inhibitory concentration (MIC) [15]: 0.5; minimal inhibitory concentration (MIC) [16]: 0.25; minimal inhibitory concentration (MIC) [17]: 0.25; minimal inhibitory concentration (MIC) [18]: 4; minimal inhibitory concentration (MIC) [19]: 0.25; minimal inhibitory concentration (MIC) [20]: 0.5
2 | CCC1OC(=O)CC(O)C(C)C(OC2OC(C)C(O)C(N(C)C)C2O)C(CC=O)CC(C)C(=O)C=CC(C)=CC1COC(=O)Cc1ccc([N+](=O)[O-])cc1 (stereo not shown) [Compound 65] | 3.12 | 0.78 | 3.12 | 0.195 | 0.39 | 3.12 | < 0.05 | 3.12 | 3.12 | 3.12 | 1.56 | 0.195 | 3.12 | 73.3 | 0.125 | 0.125 | 1 | 0.125 | 0.06 | 0.125 | minimal inhibitory concentration (MIC) [15]: 0.125; minimal inhibitory concentration (MIC) [16]: 0.03; minimal inhibitory concentration (MIC) [17]: 0.125; minimal inhibitory concentration (MIC) [18]: 1; minimal inhibitory concentration (MIC) [19]: 0.125; minimal inhibitory concentration (MIC) [20]: 0.125
3 | CCC1OC(=O)CC(O)C(C)C(OC2OC(C)C(O)C(N(C)C)C2O)C(CC=O)CC(C)C(=O)C=CC(C)=CC1COC(=O)Cc1cc(OC)ccc1OC (stereo not shown) [Compound 63] | 3.12 | 1.56 | 6.25 | 0.39 | 1.56 | 6.25 | < 0.05 | 6.25 | 6.25 | 6.25 | 3.12 | 0.195 | 12.5 | 75 | 0.25 | 0.25 | 1 | 0.25 | 0.06 | 0.125 | minimal inhibitory concentration (MIC) [15]: 0.25; minimal inhibitory concentration (MIC) [16]: 0.03; minimal inhibitory concentration (MIC) [17]: 0.25; minimal inhibitory concentration (MIC) [18]: 2; minimal inhibitory concentration (MIC) [19]: 0.125; minimal inhibitory concentration (MIC) [20]: 0.25
4 | CCC1OC(=O)CC(O)C(C)C(OC2OC(C)C(O)C(N(C)C)C2OC(C)=O)C(CC=O)CC(C)C(=O)C=CC(C)=CC1COC(=O)C(C)(C)C (stereo not shown) [Compound 67] | 3.12 | 0.39 | 12.5 | < 0.048 | 1.56 | 3.12 | < 0.048 | 1.56 | 6.25 | 3.12 | 3.12 | < 0.78 | 6.25 | 80 | 0.25 | 0.25 | 1 | 0.25 | 0.125 | 0.25 | minimal inhibitory concentration (MIC) [15]: 0.25; minimal inhibitory concentration (MIC) [16]: 0.06; minimal inhibitory concentration (MIC) [17]: 0.25; minimal inhibitory concentration (MIC) [18]: 1; minimal inhibitory concentration (MIC) [19]: 0.25; minimal inhibitory concentration (MIC) [20]: 0.25
5 | CCC1OC(=O)CC(O)C(C)C(OC2OC(C)C(O)C(N(C)C)C2OC(C)=O)C(CC=O)CC(C)C(=O)C=CC(C)=CC1COC(=O)COc1ccccc1 (stereo not shown) [Compound 35] | 1.56 | 3.12 | 3.12 | < 0.05 | 0.39 | 6.25 | 0.097 | 1.56 | 3.12 | 1.56 | 3.12 | 0.097 | 1.56 | 10 | 0.125 | 0.125 | 1 | 0.125 | 0.06 | 0.125 | minimal inhibitory concentration (MIC) [15]: 0.125; minimal inhibitory concentration (MIC) [16]: 0.03; minimal inhibitory concentration (MIC) [17]: 0.125; minimal inhibitory concentration (MIC) [18]: 1; minimal inhibitory concentration (MIC) [19]: 0.125; minimal inhibitory concentration (MIC) [20]: 0.125
